Measurements from article PMC7931429 (ACS Omega, 2021).

What was measured:
CHIKV nsP2 = target: T1, CHIKV nsP2 (Chikungunya virus, UniProt Q8JUX6); experiment: Cell-free protease inhibition assay with recombinant CHIKV nsP2; format: biochemical; details: inhibitor 1 mM, nsP2 1.4 μM, substrate 6 μM, 30 °C, 1.5 h
T1 sequence (Q8JUX6 536-1333 limits assumed): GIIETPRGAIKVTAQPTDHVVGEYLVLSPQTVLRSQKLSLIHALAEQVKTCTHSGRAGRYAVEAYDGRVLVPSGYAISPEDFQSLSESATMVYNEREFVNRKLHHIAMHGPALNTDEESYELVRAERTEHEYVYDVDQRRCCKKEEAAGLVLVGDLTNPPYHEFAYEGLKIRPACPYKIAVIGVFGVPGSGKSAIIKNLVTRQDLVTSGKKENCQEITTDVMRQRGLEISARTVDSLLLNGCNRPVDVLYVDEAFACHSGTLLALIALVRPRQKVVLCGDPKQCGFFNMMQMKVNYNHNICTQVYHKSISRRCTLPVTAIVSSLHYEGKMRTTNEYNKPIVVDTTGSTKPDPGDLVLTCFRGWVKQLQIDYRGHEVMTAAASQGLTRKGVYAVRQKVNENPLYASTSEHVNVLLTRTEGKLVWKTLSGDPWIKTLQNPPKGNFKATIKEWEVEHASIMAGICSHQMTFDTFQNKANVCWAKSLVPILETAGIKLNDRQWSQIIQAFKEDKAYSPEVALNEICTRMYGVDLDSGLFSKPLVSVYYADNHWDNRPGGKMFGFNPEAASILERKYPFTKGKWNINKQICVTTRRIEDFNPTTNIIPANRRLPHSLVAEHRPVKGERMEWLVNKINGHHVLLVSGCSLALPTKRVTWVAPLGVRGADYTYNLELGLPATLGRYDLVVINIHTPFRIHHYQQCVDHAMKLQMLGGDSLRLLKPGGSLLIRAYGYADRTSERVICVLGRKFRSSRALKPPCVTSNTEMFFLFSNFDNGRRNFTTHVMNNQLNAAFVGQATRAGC

CHIKV-NanoLuc [1] = experiment: Antiviral activity against CHIKV-NanoLuc in RPE cells; format: cell-based; details: Chikungunya virus, 48 h, read-out: IC50 in RPE cells
CHIKV-NanoLuc [2] = format: cell-based, Chikungunya virus; details: BHK-21 cells, MOI 10, 6 h post infection, concentration 10 times higher than IC50

Question: O=C(Nc1ncc([N+](=O)[O-])s1)c1ccccc1O [Compound 10, 2-hydroxy-N-(5-nitro-1,3-thiazol-2-yl)benzamide] was tested. Which “Effect on protease activity of nsP2 (amount of cleavage product)” value (from here on “Effect on protease activity of nsP2”) (CHIKV nsP2) did it give?
Answer: The value was “strongest inhibitory effect”.

Question: And the IC50 (CHIKV-NanoLuc [1])?
Answer: The IC50 was 7.3 µM.

Question: And the “Virus replication (ns-protein and capsid protein expression) by western blot” value (CHIKV-NanoLuc [2])?
Answer: The value was “completely inhibited”.

Question: With O=C(Nc1ncc([N+](=O)[O-])s1)c1cccc(Cl)c1 [Compound 10b, 3-chloro-N-(5-nitro-1,3-thiazol-2-yl)benzamide] as the compound, how does the “Effect on protease activity of nsP2” value (CHIKV nsP2) read?
Answer: The value was “smaller inhibitory effect than compound 10”.

Question: For O=C(Nc1ncc([N+](=O)[O-])s1)c1cc(Cl)ccc1Cl [Compound 10c, 2,5-dichloro-N-(5-nitro-1,3-thiazol-2-yl)benzamide], which “Effect on protease activity of nsP2” value (CHIKV nsP2) is on record?
Answer: Its value is “smaller inhibitory effect than compound 10”.

Question: How did the “Effect on protease activity of nsP2” value (CHIKV nsP2) turn out when “(5Z)-3-ethyl-5-(naphthalen-1-ylmethylidene)-2-sulfanylidene-1,3-oxazolidin-4-one [Compound 1]” was run?
Answer: The value was “no effect”.
